Measured values from patent publication US10106532B2, “Inhibitors of beta-hydroxylase for treatment of cancer” (MIDWESTERN UNIVERSITY, priority 2012, dated 2018).
“Also recorded” adds a separate entry of the source.

Experiments:
FOCUS cells [1] = assay: directional motility, Boyden chamber-type culture inserts; assay type: cell-based, human; settings: 5 μM pretreatment for 24 hours, migration 30 min
Method: (§1) The β-hydroxylase activity is required for ASPH to mediate its effects on cell motility. Directional motility was measured using Boyden chamber-type culture inserts equipped with porous membranes. FOCUS cells were pretreated with 5 μM of MO-1-1100 and MO-1-500 β-hydroxylase inhibitor for 24 hours, and then placed into the upper chamber. Migration was allowed to proceed for 30 min. ATPLite was used to quantify viable cell density. The cells in the upper well and upper surface of membrane reflects the number of non-migrating cells, luminescence measured at the bottom surface of the membrane reflects the number of migrating and non-adherent cells and luminescence measured in the bottom well was reflect migrating and non-adherent cells. […] Cell invasiveness was assessed by invasion assay using matrigel coated membrane, in which cells were allowed to proceed for 6 hours; those found adhered on the bottom surface of membrane were regarded as invading cells.

ASPH [2] = target: T1, ASPH (Homo sapiens, UniProt Q12797); assay: binding to ASPH by isothermal titration calorimetry
T1 sequence (Q12797 1-758): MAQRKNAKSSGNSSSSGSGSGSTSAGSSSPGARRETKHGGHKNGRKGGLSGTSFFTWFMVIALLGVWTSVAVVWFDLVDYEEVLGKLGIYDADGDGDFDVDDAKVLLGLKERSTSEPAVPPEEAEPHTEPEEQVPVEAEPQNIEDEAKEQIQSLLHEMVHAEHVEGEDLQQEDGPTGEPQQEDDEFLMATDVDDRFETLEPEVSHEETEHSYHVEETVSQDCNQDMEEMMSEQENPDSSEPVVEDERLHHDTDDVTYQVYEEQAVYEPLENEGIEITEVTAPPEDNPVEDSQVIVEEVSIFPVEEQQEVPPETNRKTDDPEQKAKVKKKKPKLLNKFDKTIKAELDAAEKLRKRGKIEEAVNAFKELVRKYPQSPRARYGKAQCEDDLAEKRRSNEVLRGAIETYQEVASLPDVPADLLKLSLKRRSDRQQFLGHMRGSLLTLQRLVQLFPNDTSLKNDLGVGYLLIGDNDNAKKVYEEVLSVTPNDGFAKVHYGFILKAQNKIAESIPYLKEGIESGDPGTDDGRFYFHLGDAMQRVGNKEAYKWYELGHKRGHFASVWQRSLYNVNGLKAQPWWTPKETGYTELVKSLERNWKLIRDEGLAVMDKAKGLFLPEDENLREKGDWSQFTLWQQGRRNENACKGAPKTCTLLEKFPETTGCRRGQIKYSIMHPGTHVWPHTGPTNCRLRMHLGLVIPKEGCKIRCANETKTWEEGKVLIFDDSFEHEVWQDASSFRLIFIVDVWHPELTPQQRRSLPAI
Source text: In the second step arylhydroxytetronimide was sulfonylated with phenylmethansulfonyl chloride in dry tetrahydrofuran to yield compounds of formula 1 (shown below). Compounds were characterized by 1H and 13C nuclear magnetic resonance, high resolution mass spectroscopy, high performance liquid chromatography, infra-red spectroscopy, melting point, elemental analysis and binding to ASPH by isothermal titration calorimetry.
Candidate parent compounds were selected as inhibitors for β-hydroxylase activity based on crystal structure of the catalytic site in the C-terminal region of ASPH and computer assisted drug design.

FOCUS cells [3] = assay: anchorage independent growth in soft agar; assay type: cell-based, human
Method: The effect of MO-1-1100 on anchorage independent growth in soft agar was evaluated. The ability of forming colonosphere in soft agar is considered to be a rigid test for tumorigenic potential. ASPH expression results in cells acquiring the ability to form colonospheres in soft agar. […] In order to evaluate the effect of ASPH inhibitor for anchorage independent colony formation, FOCUS cells were incubated in soft agar with or without this ASPH enzymatic inhibitor. After 3 weeks incubation, MO-1-1100 reduced colonosphere formation of FOCUS cells (FIG. 9A). […] This assay is a standard method to monitor malignant growth that reflects the ability to form tumors that grow aggressively in vivo.

FOCUS cells [4] = assay: MTT assay (cell proliferation, metabolic activity); assay type: cell-based, human; settings: micromolar concentrations
Method: (§2) A MTT assay was performed to evaluate the effect of MO-1-1100 on cell proliferation and viability. MTT is reduced to purple formazan in living cells. FOCUS cells were used as a high ASPH expressing human HCC cell line. […] The MTT assay measures cellular metabolic activity via NAD(P)H-dependent cellular oxidoreductase enzymes. […] In order to evaluate the effect of long-term exposure of MO-1-1100, the colony formation assay (an assay of malignant potential and phenotype) in which cells were treated with inhibitor for 3 weeks was performed.

FOCUS cells [5] = assay: invasion assay using matrigel coated membrane; assay type: cell-based, human; settings: 6 hours, compared to DMSO control
Method: as §1

FOCUS HCC cells = assay: colony formation assay; assay type: cell-based, human; settings: 1.25 μM
Method: as §2

ASPH [6] = target: T1, ASPH; assay: high throughput 14CO2 capture enzymatic assay for ASPH β-hydroxylase activity (ASPH mAb capture from lysates of treated FOCUS cells); assay type: biochemical; set-up: endogenous in cells; host or cells: FOCUS cells (human hepatocellular carcinoma line)
Method: In yet another aspect, the disclosure provides a method determining ASPH activity by contacting an EGF-like domain peptide with a detectably-labeled α-ketoglutarate and ASPH enzyme and measuring β-hydroxylase activity. In one embodiment, said α-ketoglutarate is ^14C-labelled, and wherein β-hydroxylase activity is measured by detecting liberated ^14CO2. In one embodiment, said liberated ^14CO2 is captured on a filter and radioactivity quantified. […] In one embodiment, said EGF-like domain comprises the amino acid sequence of […] (SEQ ID NO:1). In one embodiment, said EGF-like domain peptide comprises the consensus sequence of CDXXXCXXKXGNGXCDXXCNNAACXXDGXDC (SEQ ID NO: 2).
FIG. 3A is a diagram of the biochemical reaction catalyzed by ASPH derived from PC cell lysates. FIG. 3B is a cartoon illustrating the read-out to quantify ASPH activity in PC cells and tumors. FIG. 3C is an image of membrane was obtained by a phosphor-imager after a 16 hour exposure of the trapping filter to a phospho-screen. FIG. 3D is a bar graph showing intensities were calculated by Image J software and compared to a DMSO control. Vertical bars represent standard deviation. These figures show methods of measurement and data relating to ASPH catalytic activity.
EGF and EGF-like domains are well known in the art and generally include six cysteine residues which have been shown (in EGF) to be involved in disulfide bonds. The main structure is a two-stranded beta-sheet followed by a loop to a C-terminal short two-stranded sheet. Subdomains between the conserved cysteines vary in length. Examples include those described in Davis, C G, 1990, New Biol. 2(5):410-9; Blomquist et al., 1984, Proc Natl Acad Sci USA. 81(23):7363-7; Hommel et al., […], J Mol Biol. 227(1):271-82; Doolittle et al., 1984, Nature. 307(5951):558-60; Appella et al., 1988, FEBS Lett. 231(1):1-4; Sorkin A., 2001, Biochem Soc Trans. August; 29(Pt 4):480-4; each of which is hereby incorporated by reference). FIGS. 3A-C represents the strategy for development and characterization of the performance of an assay to measure ASPH enzymatic activity. FIG. 3A describes the biochemical reaction catalyzed by ASPH. FIG. 3B depicts the read-out of the assay. Protein lysates were extracted from FOCUS cells (high level of ASPH cell surface expression) treated with 1-10 μM of each parent compound for 24 hours. The lysates were added into 96 well-plates coated with ASPH monoclonal antibodies (mAbs) to add an antigen specific (ASPH) capture step to the assay design. After incubation and washing, only ASPH is captured on each well. The reaction is carried out with 60 μM of an EGF domain containing 39AA peptide, 100 μM FeCl2 and 40 μM ^14C labeled α-ketoglutarate were added into each well. The ^14CO2 was captured on a glass fiber membrane soaked in Ca(OH)2. […] The compound was further characterized for clinical use as an anti-tumor agent for PC and HCC and other ASPH-expressing tumors.

NIH-3T3 cells = assay: MTT assay (cell proliferation, metabolic activity); assay type: cell-based, mouse
Method: as §2

**Q.** Which melting point does the source give for `NC1=C(OS(=O)(=O)c2ccccc2)C(=O)C(c2ccc(Cl)cc2)O1` (centres unmarked) [Compound 7c, 2-(4-chlorophenyl)-4-[[phenylsulfonyl]oxy]-5-amino-3(2H)-furanone] here?
**A.** 190 to 195 °C

**Q.** For `NC1=C(O)C(=O)C(c2ccc(Cl)cc2)O1` (centres unmarked) [Example 1c, 5-amino-4-hydroxy-2-(4-chlorophenyl)-furan-3-one], which melting point is on record?
**A.** 221 to 222 °C

**Q.** For `NC1=C(O)C(=O)C(c2ccccc2F)O1` (centres unmarked) [Example 1j, 5-amino-4-hydroxy-2-(2-fluorophenyl)-furan-3-one], which melting point is on record?
**A.** 160 to 163 °C

**Q.** Which melting point does the source give for `NC1=C(O)C(=O)C(c2cccc(F)c2)O1` (centres unmarked) [Example 1k, 5-amino-4-hydroxy-2-(3-fluorophenyl)-furan-3-one] here?
**A.** 168 °C

**Q.** For `NC1=C(O)C(=O)C(c2cccc(F)c2F)O1` (centres unmarked) [Example 1m, 5-amino-4-hydroxy-2-(2,3-difluorophenyl)-furan-3-one], which melting point is on record?
**A.** 193 °C

**Q.** For `NC1=C(O)C(=O)C(c2ccc(F)cc2F)O1` (centres unmarked) [Example 1n, 5-amino-4-hydroxy-2-(2,4-difluorophenyl)-furan-3-one], which melting point is on record?
**A.** 182 to 183 °C

**Q.** Which melting point does the source give for `NC1=C(O)C(=O)C(c2cc(F)ccc2F)O1` (centres unmarked) [Example 1o, 5-amino-4-hydroxy-2-(2,5-difluorophenyl)-furan-3-one] here?
**A.** 196 °C

**Q.** Which melting point does the source give for `NC1=C(O)C(=O)C(c2c(F)cccc2F)O1` (centres unmarked) [Example 1p, 5-amino-4-hydroxy-2-(2,6-difluorophenyl)-furan-3-one] here?
**A.** 159 to 160 °C

**Q.** Which melting point does the source give for `NC1=C(O)C(=O)C(c2ccc(F)c(F)c2)O1` (centres unmarked) [Example 1q, 5-amino-4-hydroxy-2-(3,4-difluorophenyl)-furan-3-one] here?
**A.** 190 to 194 °C

**Q.** For `NC1=C(O)C(=O)C(c2cc(F)cc(F)c2)O1` (centres unmarked) [Example 1r, 5-amino-4-hydroxy-2-(3,5-difluorophenyl)-furan-3-one], which melting point is on record?
**A.** 190 to 191 °C

**Q.** With `CC(=O)OC1=C(N)OC(c2ccc(Cl)cc2)C1=O` (centres unmarked) [Example 2c, 2-(4-chlorophenyl)-4-(acetoxy)-5-amino-3(2H)-furanone] as the compound, how does the melting point read?
**A.** 221 to 222 °C

**Q.** For `CCS(=O)(=O)Nc1oc(-c2ccc(Cl)cc2)c(O)c1O` [MO-1-500], which “cell migration / motility” value (FOCUS cells [1]) is on record?
**A.** pronounced effect

**Q.** And the ASPH binding (ASPH [2])?
**A.** confirmed to demonstrate ASPH binding

**Q.** And the “number of colonies formed and colony size in soft agar” value (FOCUS cells [3]; 1 μM)?
**A.** dramatically reduced

**Q.** What about the “number and size of FOCUS cell colonies in soft agar” value (FOCUS cells [3]; 0.5, 1, and 5 μM) of the same compound?
**A.** striking reduction

**Q.** What about the “cell proliferation and metabolic activity” value (FOCUS cells [4]) of the same compound?
**A.** striking affects; also recorded: growth inhibited

**Q.** And the invasiveness (FOCUS cells [5])?
**A.** pronounced effect

**Q.** What about the colony formation (FOCUS HCC cells) of the same compound?
**A.** substantial inhibitory effects; also recorded: strikingly inhibits

**Q.** And the “identified as hits (screening for inhibition of β-hydroxylase activity)” value (ASPH [6])?
**A.** identified as hits

**Q.** What about the ASPH enzymatic activity (ASPH [6]; 5 μM) of the same compound?
**A.** inhibited

**Q.** And the “ASPH enzymatic inhibitory activity (β-hydroxylase)” value (ASPH [6]; concentration not given)?
**A.** inhibit

**Q.** What about the “specificity for the β-hydroxylase activity of ASPH” value (NIH-3T3 cells; FOCUS (express ASPH) versus NIH-3T3 (do not express ASPH)) of the same compound?
**A.** not specific for ASPH

**Q.** And the “cell proliferation and metabolic activity” value (NIH-3T3 cells; NIH-3T3 cells, micromolar concentrations)?
**A.** striking affects; also recorded: growth inhibited
